pIC50: −log10 of the molar value.
Assays:
PRMT5 [1] = molecular target: T1, PRMT5 (Homo sapiens, UniProt O14744); assay: PRMT5 IC50 assay with no cofactor; assay type: biochemical; conditions: read-out: No Co-factor IC50
T1 construct: purchased Viva (custom protein)
Method in brief: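 For the SAM-containing format, dividing IC50 by 1.5 yields Ki; for the MTA-containing format the divisor is 13.5. A third format without cofactor gives IC50 alone.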

HAP1 MTAP-intact = assay: SDMA in-cell western assay, HAP1 MTAP-intact cell line; assay type: cell-based; conditions: Homo sapiens
Method in brief: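 HAP1 isogenic pair: endogenous MTAP vs MTAP-null. Readout SDMA by in-cell western; IC50 per line. Ratio ≥3 fold = MTAP-selective.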

PRMT5 [2] = molecular target: T1, PRMT5; assay: PRMT5 IC50 assay in the presence of MTA as cofactor; assay type: biochemical; conditions: for pIC50: PRMT5, MTA as cofactor; for SAM/MTA Ratio: ratio between Ki in the presence of SAM and Ki in the presence of MTA
Method in brief: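 MTA-dependent versus SAM-dependent inhibition of human PRMT5 was assessed by IC50; conversion factors of 13.5 and 1.5 gave the corresponding Ki.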

PRMT5 [3] = molecular target: T1, PRMT5; assay: PRMT5 IC50 assay in the presence of SAM as cofactor; assay type: biochemical
Method in brief: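 Values reflect IC50 (μM) on human PRMT5 under three cofactor states. Selectivity is derived as the quotient of SAM-state Ki over MTA-state Ki, with each Ki obtained from its IC50.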

HAP1 MTAP-deleted = assay: SDMA in-cell western assay, HAP1 MTAP-deleted cell line; assay type: cell-based; conditions: for pIC50: Homo sapiens, HAP1 MTAP-deleted cell line; for MTAP Intact/Deleted Ratio: IC50 ratio HAP1 MTAP-intact / HAP1 MTAP-deleted
Method in brief: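 IC50 from SDMA in-cell western; HAP1 line lacking MTAP (null), paired isogenically with MTAP-intact HAP1 expressing endogenous MTAP.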

T1 sequence (O14744 whole entry): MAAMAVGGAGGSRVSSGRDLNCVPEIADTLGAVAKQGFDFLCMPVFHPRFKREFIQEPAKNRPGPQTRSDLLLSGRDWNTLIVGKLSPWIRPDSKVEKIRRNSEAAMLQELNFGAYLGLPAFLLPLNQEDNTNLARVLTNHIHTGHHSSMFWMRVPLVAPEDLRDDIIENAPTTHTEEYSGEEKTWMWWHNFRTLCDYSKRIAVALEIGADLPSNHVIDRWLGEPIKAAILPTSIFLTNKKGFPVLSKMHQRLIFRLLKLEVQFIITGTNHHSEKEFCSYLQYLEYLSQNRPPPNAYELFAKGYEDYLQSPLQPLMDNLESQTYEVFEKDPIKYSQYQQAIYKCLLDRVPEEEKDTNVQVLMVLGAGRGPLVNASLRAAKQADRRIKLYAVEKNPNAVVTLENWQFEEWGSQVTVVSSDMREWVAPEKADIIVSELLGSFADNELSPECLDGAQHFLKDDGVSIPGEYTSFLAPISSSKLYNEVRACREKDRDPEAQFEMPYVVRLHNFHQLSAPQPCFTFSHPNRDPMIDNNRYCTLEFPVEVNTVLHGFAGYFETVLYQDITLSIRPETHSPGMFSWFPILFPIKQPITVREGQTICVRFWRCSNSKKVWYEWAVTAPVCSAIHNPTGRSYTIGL
T1 sequence (Q9BQA1 whole entry partner): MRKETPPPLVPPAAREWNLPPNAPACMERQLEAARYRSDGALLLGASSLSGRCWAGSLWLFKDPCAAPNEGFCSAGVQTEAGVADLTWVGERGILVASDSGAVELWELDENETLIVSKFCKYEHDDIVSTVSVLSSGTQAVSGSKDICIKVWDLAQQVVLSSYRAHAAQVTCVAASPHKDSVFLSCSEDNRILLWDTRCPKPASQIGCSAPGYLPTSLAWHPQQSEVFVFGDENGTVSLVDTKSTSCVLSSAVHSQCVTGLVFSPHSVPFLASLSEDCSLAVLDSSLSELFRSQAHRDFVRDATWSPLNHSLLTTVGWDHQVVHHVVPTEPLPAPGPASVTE

SMILES | pIC50 (PRMT5 [1]) | pIC50 (HAP1 MTAP-intact) | pIC50 (PRMT5 [2]) | pIC50 (PRMT5 [3]) | pIC50 (HAP1 MTAP-deleted) | SAM/MTA Ratio (PRMT5 [2]) | MTAP Intact/Deleted Ratio (HAP1 MTAP-deleted)
O=C(NC[C@H](O)CN1CCc2c(ccc(OCc3cnco3)c2Cl)C1)c1cc(NC2COC2)nc(N2CCCCC2)n1 [Compound 327, (S)—N-(3-(5-chloro-6-(oxazol-5-ylmethoxy)-3N-dihydroisoquinolin-2(1H)-yl)-2-hydroxypropyl)-6-(oxetan-3-ylamino)-2-(piperidin-1-yl)pyrimidine-4-carboxamide] | 5.30 to 6.30 | ≤ 5.00 | 6.30 to 7.30 | 6.30 to 7.30 | 5.00 to 6.00 | A (a Ki ratio greater than or equal to 10 fold between the Ki in the presence of SAM and the Ki in the presence of MTA) | B* (an IC50 ratio greater than or equal to 3 fold but lower than 10 fold between the IC50 in the HAP1 MTAP-intact cell line and the HAP1 MTAP-deleted cell line)
O=C(NC[C@H](O)CN1CCc2cc(OCc3cnco3)ccc2C1)c1ccc(OC2CCN(Cc3ccncc3)CC2)cc1 [Compound 328] | 5.30 to 6.30 | 5.00 to 6.00 | 6.30 to 7.30 | 6.30 to 7.30 | > 6.00 | A (a Ki ratio greater than or equal to 10 fold between the Ki in the presence of SAM and the Ki in the presence of MTA) | C* (an IC50 ratio of less than 3 fold between the IC50 in the HAP1 MTAP-intact cell line and the HAP1 MTAP-deleted cell line)
CN(C)CCOc1cc(C(=O)NC[C@H](O)CN2CCc3c(ccc(OCc4cnco4)c3Cl)C2)cc(NC2CCC2)n1 [Compound 329, (S)—N-(3-(5-chloro-6-(oxazol-5-ylmethoxy)-3N-dihydroisoquinolin-2(1H)-yl)-2-hydroxypropyl)-2-(cyclobutylamino)-6-(2-(dimethylamino)ethoxy)isonicotinamide] | 5.30 to 6.30 | ≤ 5.00 | > 7.30 | 6.30 to 7.30 | 5.00 to 6.00 | A (a Ki ratio greater than or equal to 10 fold between the Ki in the presence of SAM and the Ki in the presence of MTA) | B* (an IC50 ratio greater than or equal to 3 fold but lower than 10 fold between the IC50 in the HAP1 MTAP-intact cell line and the HAP1 MTAP-deleted cell line)
O=C(NC[C@H](O)CN1CCc2c(ccc(OCc3cnco3)c2Cl)C1)c1ccc(OC2CCN(Cc3ccccc3)CC2)cc1 [Compound 330, (S)-4-((1-benzylpiperidin-4-yl)oxy)-N-(3-(5-chloro-6-(oxazol-5-ylmethoxy)-3,4-dihydroisoquinolin-2(1H)-yl)-2-hydroxypropyl)benzamide] | 5.30 to 6.30 | ≤ 5.00 | 6.30 to 7.30 | 6.30 to 7.30 | ≤ 5.00 | A (a Ki ratio greater than or equal to 10 fold between the Ki in the presence of SAM and the Ki in the presence of MTA) | C* (an IC50 ratio of less than 3 fold between the IC50 in the HAP1 MTAP-intact cell line and the HAP1 MTAP-deleted cell line)
Cc1ncoc1COc1ccc2c(c1)CCN(C[C@@H](O)CNC(=O)c1cc(NC3CCCC3)ncn1)C2 [Compound 333, 6-(cyclopentylamino)-N-[(2S)-2-hydroxy-3-{6-[(4-methyl-1,3-oxazol-5-yl)methoxy]-1,2,3,4-tetrahydroisoquinolin-2-yl}propyl]pyrimidine-4-carboxamide] | ≤ 5.30 | > 6.00 | 6.30 to 7.30 | 6.30 to 7.30 | > 6.00 | A (a Ki ratio greater than or equal to 10 fold between the Ki in the presence of SAM and the Ki in the presence of MTA) | C* (an IC50 ratio of less than 3 fold between the IC50 in the HAP1 MTAP-intact cell line and the HAP1 MTAP-deleted cell line)

Further lines, with some results ahead:

pIC50 (PRMT5 [1]) | pIC50 (HAP1 MTAP-intact) | pIC50 (PRMT5 [2]) | pIC50 (PRMT5 [3]) | pIC50 (HAP1 MTAP-deleted) | SMILES | SAM/MTA Ratio (PRMT5 [2]) | MTAP Intact/Deleted Ratio (HAP1 MTAP-deleted)
≤ 5.30 | > 6.00 | 6.30 to 7.30 | 5.30 to 6.30 | > 6.00 | O=C(NC[C@H](O)CN1CCc2cc(OCc3cnco3)ccc2C1)c1cc(NC2CCC2)ncc1F [Compound 334, (S)-2-(cyclobutylamino)-5-fluoro-N-(2-hydroxy-3-(6-(oxazol-5-ylmethoxy)-3A-dihydroisoquinolin-2(1H)-yl)propyl)isonicotinamide] | A (a Ki ratio greater than or equal to 10 fold between the Ki in the presence of SAM and the Ki in the presence of MTA) | C* (an IC50 ratio of less than 3 fold between the IC50 in the HAP1 MTAP-intact cell line and the HAP1 MTAP-deleted cell line)
≤ 5.30 | ≤ 5.00 | 5.30 to 6.30 | 5.30 to 6.30 | ≤ 5.00 | O=C(NC[C@H](O)CN1CCc2c(ccc(OCc3cnco3)c2Cl)C1)c1cccc(NC2CCC2)c1 [Compound 335, (S)—N-(3-(5-chloro-6-(oxazol-5-ylmethoxy)-3,4-dihydroisoquinolin-2(1H)-yl)-2-hydroxypropyl)-3-(cyclobutylamino)benzamide] | A (a Ki ratio greater than or equal to 10 fold between the Ki in the presence of SAM and the Ki in the presence of MTA) | C* (an IC50 ratio of less than 3 fold between the IC50 in the HAP1 MTAP-intact cell line and the HAP1 MTAP-deleted cell line)
≤ 5.30 | ≤ 5.00 | 5.30 to 6.30 | 5.30 to 6.30 | ≤ 5.00 | O=C(NC[C@H](O)CN1CCc2c(ccc(OCc3cnco3)c2Cl)C1)c1cc(NC2CCCC2)ncn1 [Compound 336, (S)—N-(3-(5-chloro-6-(oxazol-5-ylmethoxy)-3,4-dihydroisoquinolin-2(1H)-yl)-2-hydroxypropyl)-6-(cyclopentylamino)pyrimidine-4-carboxamide] | A (a Ki ratio greater than or equal to 10 fold between the Ki in the presence of SAM and the Ki in the presence of MTA) | C* (an IC50 ratio of less than 3 fold between the IC50 in the HAP1 MTAP-intact cell line and the HAP1 MTAP-deleted cell line)
≤ 5.30 | ≤ 5.00 | 5.30 to 6.30 | 5.30 to 6.30 | ≤ 5.00 | O=C(NC[C@H](O)CN1CCc2c(ccc(OCc3cnco3)c2Br)C1)c1cc(NC2CCCC2)ncn1 [Compound 337] | A (a Ki ratio greater than or equal to 10 fold between the Ki in the presence of SAM and the Ki in the presence of MTA) | C* (an IC50 ratio of less than 3 fold between the IC50 in the HAP1 MTAP-intact cell line and the HAP1 MTAP-deleted cell line)
≤ 5.30 | ≤ 5.00 | 5.30 to 6.30 | 5.30 to 6.30 | ≤ 5.00 | Cc1ncoc1COc1ccc2c(c1Br)CCN(C[C@@H](O)CNC(=O)c1cc(NC3CCC3)ncn1)C2 [Compound 338, (S)—N-(3-(5-bromo-6-((4-methyloxazol-5-yl)methoxy)-3,4-dihydroisoquinolin-2(1H)-yl)-2-hydroxypropyl)-6-(cyclobutylamino)pyrimidine-4-carboxamide] | A (a Ki ratio greater than or equal to 10 fold between the Ki in the presence of SAM and the Ki in the presence of MTA) | C* (an IC50 ratio of less than 3 fold between the IC50 in the HAP1 MTAP-intact cell line and the HAP1 MTAP-deleted cell line)

Reference: patent US11986471B2, “Compounds and methods of use” (Tango Therapeutics, Inc., priority 2018, dated 2024)
